Key:
MCF-7 cells = assay: MTT colorimetric cytotoxicity assay on MCF-7 cells, single drugs and two-drug combinations, with combination index (CompuSyn); type: cell-based, Human; details: for type of drug interaction with Doxorubicin (combination index): MCF-7; for effect of the analog in combination with Doxorubicin on the anticancer activity of Doxorubicin: MCF-7, combination with Doxorubicin; for IC50: Homo sapiens, MCF7, read-out: IC50 concentration, which inhibits MCF-7 cell proliferation by 50% compared to control cells, single drug, MCF-7, 72 hours, MTT
Method: (§1) IC50 values were calculated using GraphPad Prism software.
(§2) This equation defines "Synergism" (CI < 1), "Additive effect" (CI = 1) and "Antagonism" (CI > 1).

A549 cells = assay: MTT colorimetric cytotoxicity assay on A549 cells, single drugs and two-drug combinations, with combination index (CompuSyn); type: cell-based; details: Homo sapiens, A549, 72 hours, read-out: IC50 value for cancer cell survival
Method: The cancer cell lines (MCF-7, A549 and U-87MG) were cultured as monolayers in Dulbecco's modified Eagle's medium supplemented with 10% (v/v) fetal bovine serum and 1% (v/v) penicillin/streptomycin mixture (10,000 U/mL penicillin and 10 mg/mL streptomycin) in a 100% humidified atmosphere of 5% CO2 and 95% air at 37 °C. […] Cell cultures were kept in the exponential growth phase by regularly passaging cells three times a week with 0.25% trypsin/EDTA mixture.
The cytotoxic activity of the test compounds against cancer cell lines was tested using the standard MTT (3-(4,5-dimethylthiazol-2-yl)-2,5-diphenyltetrazolium bromide) colorimetric assay. […] Briefly, exponentially proliferating cells were seeded into each well of a 96-well microplate (about 5×10^3 cells/well). After 24 hours, test compounds at various concentrations were added to the respective wells, and the cells were incubated for another 72 hours. After incubating the cells with the test compounds, the medium was removed and MTT solution with a final concentration of 0.5 mg/mL was added. After 4 hours of incubation, the MTT solution was replaced with DMSO to dissolve the resulting violet formazan crystals in metabolically viable cells. Plates were gently shaken at room temperature until the formazan was completely dissolved and read at 540 nm using a microplate reader. […] The experiment was repeated at least three times under the same conditions. […] IC50 values were calculated using GraphPad Prism software. […] The test drugs were administered to the cells at the same time.
The combination index (CI) method - a dimensionless quantity used to determine and quantify the type of drug interaction - for binary combinations was calculated using CompuSyn software based on the equation: (CI)x = ((D)1)/((Dx)1) + ((D)2)/((Dx)2) = ((D)1)/((Dm)1 ([(fa)/((1−fa))])^((1)/(m1))) + ((D)2)/((Dm)2 ([(fa)/((1−fa))])^((1)/(m2))) [formula] […]
All data are expressed as mean±standard deviation (SD) and presented as a percentage of control (untreated cells) taken as 100%, n=3 (or more). […]

U-87MG cells = assay: MTT colorimetric cytotoxicity assay on U-87MG cells, single drugs and two-drug combinations, with combination index (CompuSyn); type: cell-based, Human; details: for IC50: Homo sapiens, single drug, U-87MG, 72 hours, MTT, read-out: IC50 value (cell survival)
Method: Glimepiride and its analogs were first prepared as a stock solution in DMSO, and then the drugs were dissolved fresh in culture medium enriched with Tween 80 (final concentration 0.05%).
Human cancer cells (MCF-7, A549 and U-87MG) and normal endothelial cells (HMEC-1) were obtained from American Type Cell Culture (Rockville, MD). The cancer cell lines (MCF-7, A549 and U-87MG) were cultured as monolayers in Dulbecco's modified Eagle's medium supplemented with 10% (v/v) fetal bovine serum and 1% (v/v) penicillin/streptomycin mixture (10,000 U/mL penicillin and 10 mg/mL streptomycin) in a 100% humidified atmosphere of 5% CO2 and 95% air at 37 °C. Normal endothelial cells (HMEC-1) were cultured in MCDB 131 medium supplemented with 10% (v/v) fetal bovine serum, 10 ng/mL EGF, 1 µg/mL hydrocortisone and 1% (v/v) penicillin/streptomycin solution, in a humidified atmosphere of 5% CO2 and 95% air at 37 °C. Cell cultures were kept in the exponential growth phase by regularly passaging cells three times a week with 0.25% trypsin/EDTA mixture.
as §1, §2
All data are expressed as mean±standard deviation (SD) and presented as a percentage of control (untreated cells) taken as 100%, n=3 (or more). Sample size was estimated for Type I and Type II statistical errors of […], respectively. Normality of the data was checked with the Shapiro-Wilk test, and the homogeneity of variance was checked with the Levene or Brown-Forsythe test. The significance of differences between pairs of means was estimated using one-way ANOVA and Tukey's post-hoc test. For each analysis, the post-hoc power of the used tests was checked. Statistical power below 80% was considered a null result, and constructive conclusions were not made. All statistics were calculated using […] (StatSoft, USA) or GraphPad Prism software.

[1] = system: MDA-MB-231 breast carcinoma cells; details: Glibenclamide alone; inhibits G1-S phase progression without cell death or differentiation; cited from earlier work
[2] = Glimepiride analog 100-500 µM in combination with Doxorubicin 0.225, 0.450, 0.900 µM

Compound	type of drug interaction with Doxorubicin (combination index) (MCF-7 cells; [2])	effect of the analog in combination with Doxorubicin on the anticancer activity of Doxorubicin (MCF-7 cells)	other results
Cc1ccc(S(=O)(=O)NC(=O)NN2CCCCCC2)cc1 [Tolazamide, 1-(azepan-1-yl)-3-(4-methylphenyl)sulfonylurea]	strong or very strong synergy	beneficial effect	
CCCCCOC(=O)Nc1nc(=O)n([C@@H]2O[C@H](C)[C@@H](O)[C@H]2O)cc1F [CAPE, pentyl N-[1-[(2R,3R,4S,5R)-3,4-dihydroxy-5-methyloxolan-2-yl]-5-fluoro-2-oxopyrimidin-4-yl]carbamate]			IC50 (A549 cells): 60 nM; IC50 (U-87MG cells): 40 nM; IC50 (MCF-7 cells): 180 nM
COc1ccc(Cl)cc1C(=O)NCCc1ccc(S(=O)(=O)NC(=O)NC2CCCCC2)cc1 [Glibenclamide]	strong or very strong synergy	beneficial effect	effect in MDA-MB-231 cells [1]: cytostatic effect
Cc1ccc(S(=O)(=O)NC(=O)NN2CC3CCCC3C2)cc1 (centres unmarked) [Gliclazide, 1-(3,3a,4,5,6,6a-hexahydro-1H-cyclopenta[c]pyrrol-2-yl)-3-(4-methylphenyl)sulfonylurea]	strong or very strong synergy	beneficial effect	
CCCNC(=O)NS(=O)(=O)c1ccc(Cl)cc1 [Chlorpropamide, 1-(4-chlorophenyl)sulfonyl-3-propylurea]	strong or very strong synergy	beneficial effect	
Cc1cnc(C(=O)NCCc2ccc(S(=O)(=O)NC(=O)NC3CCCCC3)cc2)cn1 [Glipizide, N-[2-[4-(cyclohexylcarbamoylsulfamoyl)phenyl]ethyl]-5-methylpyrazine-2-carboxamide]		beneficial effect	
COc1cccc2c1C(=O)c1c(O)c3c(c(O)c1C2=O)C[C@@](O)(C(=O)CO)C[C@@H]3O[C@H]1C[C@H](N)[C@H](O)[C@H](C)O1 [Doxorubicin, (7S,9S)-7-[(2R,4S,5S,6S)-4-amino-5-hydroxy-6 methyloxan-2-yl]oxy-6,9,11-trihydroxy-9-(2-hydroxyacetyl)-4-methoxy-8,10-dihydro-7H tetracene-5,12-dione]			U-87MG cell survival (U-87MG cells; 0.52 µM Doxorubicin alone): 75.6%
CC(=O)O[C@@]12CO[C@@H]1C[C@H](O)[C@@]1(C)C(=O)[C@H](O)C3=C(C)[C@@H](OC(=O)[C@H](O)[C@@H](NC(=O)OC(C)(C)C)c4ccccc4)C[C@@](O)([C@@H](OC(=O)c4ccccc4)[C@H]21)C3(C)C [DOCE, [(1S,2S,3R,4S,7R,9S,10S,12R,15S)-4-acetyloxy-1,9,12 trihydroxy-15-[(2R,3S)-2-hydroxy-3-[(2-methylpropan-2-yl)oxycarbonylamino]-3 phenylpropanoyl]oxy-10,14,17,17-tetramethyl-11-oxo-6 oxatetracyclo[11.3.1.03,1 0.04, 7]heptadec-13-en-2-yl] benzoate]			IC50 (A549 cells): 150 nM; IC50 (U-87MG cells): 80 nM; IC50 (MCF-7 cells): 240 nM
CCCCNC(=O)NS(=O)(=O)c1ccc(C)cc1 [Tolbutamide, 1-butyl-3-(4-methylphenyl)sulfonylurea]		beneficial effect	
COc1ccc2c(c1)C(=O)N(CCc1ccc(S(=O)(=O)NC(=O)NC3CCCCC3)cc1)C(=O)C2(C)C [Gliquidone]	not every combination of concentrations of Doxorubicin and Gliquidone produce a synergistic effect	beneficial effect	type of drug interaction with Doxorubicin (combination index) (MCF-7 cells; 100 µM analog in combination with Doxorubicin 0.225, 0.450, 0.900 µM): additive effect or slight antagonism; type of drug interaction with Doxorubicin (combination index) (MCF-7 cells; other dose combinations (analog above 100 µM) with Doxorubicin): synergistic effects
CCCCNC(=O)NS(=O)(=O)c1ccc(N)cc1 [Carbutamide]		beneficial effect	
CCC1=C(C)CN(C(=O)NCCc2ccc(S(=O)(=O)NC(=O)NC3CCC(C)CC3)cc2)C1=O (centres unmarked) [Glimepiride, 4-ethyl-3-methyl-N-[2-[4-[(4-methylcyclohexyl)carbamoylsulfamoyl]phenyl]ethyl]-5-oxo-2H-pyrrole-1-carboxamide]			IC50 (A549 cells): 389000 ± 4490 nM; IC50 (U-87MG cells): 149000 ± 12200 nM; IC50 (MCF-7 cells): 186000 ± 7020 nM
